Assay results reported in patent EP0278673B1, “A benzoylurea derivative and its production and use” (priority 1987, dated 1988).

Assays:
Assay type in all cases: in vivo
[1] = tested on: common mosquito (Culex pipiens pallens); test: Emergence inhibition test on last instar mosquito larvae (Test example 1); conditions: 0.01 ppm in water; 20 last instar larvae bred until emergence; two replications
Experimental: The emulsifiable concentrates of the following test compounds obtained according to Formulation example 1 were each diluted with water to a concentration of 0.01 ppm. Thereafter, 100 ml of each dilute solution thus obtained was put in a 180-ml polyethylene cup, and 20 last instar larvae of common mosquito (Culex pipiens pallens) were liberated therein. The larvae were bred on a bait until emergence to obtain an emergence inhibitory ratio (two replications).

[2] = tested on: carmine spider mite (Tetranychus cinnabarinus); test: Degree of mite damage on potted kidney bean after spray and soil treatment (Test example 5); set-up: key: -: Little damage is observed.; +: Slight damage is observed.; ++: Same damage as in the untreated plot is observed; conditions: 500 ppm, 10 ml sprayed on plant, 2 ml on pot soil, after 20 days
Experimental: Ten female adults of carmine spider mite (Tetranychus cinnabarinus) were transferred onto each leaf of potted kidney bean in a primary leaf stage, which had elapsed seven days after sowing, and stored in a constant-temperature room kept at 25°C. After six days, the emulsifiable concentrate of the following test compounds formulated according to Formulation example 1 was diluted with water so that the active ingredient concentration was 500 ppm. Ten milliliters of the dilute solution was sprayed onto the plant on a turn table by a spray gun, and 2 ml of the diluted solution was treated on the pot soil. After 20 days, the degree of damage of each kidney bean by mites was examined.
The degree of damage was classified into three stages, -, + and ++. - : Little damage is observed. + : Slight damage is observed. ++: Same damage as in the untreated plot is observed.

[3] = tested on: carmine spider mite (Tetranchus cinnabarinus); test: Sterilization test on sprayed female adults, egg hatchability (Test example 4); conditions: 100 ppm, 3 ml sprayed on female adults; oviposition three days; hatchability after six days at 27°C
Experimental: The emulsifiable concentrates of the following test compounds obtained according to Formulation example 1 were each diluted with water to a concentration of 100 ppm to obtain a dilute solution of each emulsifiable concentrate. Thirty female adults of carmine spider mite (Tetranchus cinnabarinus) were transferred onto a leaf in a petri dish, and 3 ml of the dilute solution was sprayed thereon. After air-drying, 18 female adults were transferred onto untreated leaves in a petri dish, and allowed to oviposit for three days. The eggs obtained were stored in a chamber controlled at 27°C in an artificial weather room. After six days, hatchability of the eggs was examined to obtain a sterilization ratio.

[4] = tested on: tobacco cutworm (Spodoptera litura); test: Mortality test on fourth instar larvae with treated artificial diet (Test example 2); conditions: 50 ppm, 2 ml on 13 g artificial diet, after six days, two replications, 8640 min
Source text: The emulsifiable concentrates of the following test compounds obtained according to Formulation example 1 were each diluted with water to a concentration of 50 ppm. Two milliliters of each dilute solution thus obtained was applied onto 13 g of artificial diet for tobacco cutworm (Spodoptera litura) which were then put in a polyethylene cup of 11 cm in diameter. Then, ten fourth instar larvae of tobacco cutworm were liberated in the cup. After six days, the dead and alive were examined to obtain mortality (two replications).

[5] = tested on: carmine spider mite (Tetranychus cinnabarinus); test: Adult emergence inhibition test on sprayed deutonymphs (Test example 3); conditions: 3 ml sprayed, after three days
Experimental: The emulsifiable concentrates of the following test compounds obtained according to Formulation example 1 were each diluted with water to a pre-determined concentration to obtain a dilute solution of each emulsifiable concentrate. From 20 to 60 deutonymphs of carmine spider mite (Tetranychus cinnabarinus) were transferred onto leaves in a petri dish, and 3 ml of the dilute solution was sprayed thereon. After three days, the number of the adults was counted to obtain an adult emergence inhibitory ratio.

Row | Compound | Emergence inhibitory ratio (%) [1] | Degree of damage [2] | Sterilization ratio (%) [3] | Mortality (%) [4] | Concentration and adult emergence inhibitory ratio (%) 100 ppm [5] | Concentration and adult emergence inhibitory ratio (%) 500 ppm ([5]; 500 ppm)
1 | O=C(NC(=O)c1c(F)cccc1F)Nc1cc(Cl)c(Nc2ccc(OC(F)(F)F)cc2)c(Cl)c1 [(1), N-2,6-difluorobenzoyl-Nʹ-3,5-dichloro-4-[4-(trifluoromethoxy)anilino]phenylurea] | 100% | - | 98% | 100% | 100% | 94%
2 | O=C(NC(=O)c1c(F)cccc1F)Nc1cc(Cl)c(Nc2ccc(OC(F)(F)C(F)F)cc2)c(Cl)c1 [(3), N-2,6-difluorobenzoyl-Nʹ-3,5-dichloro-4-[4-(1,1,2,2-tetrafluoroethoxy)anilino]phenylurea] | 100% |  | 95% | 100% | 91% | 
